The structures appear in SMILES notation.

One experiment relates to Trypanosoma brucei. Nature of the experiment: Resistance factor, ratio of EC50 for 5FU resistant Trypanosoma brucei to EC50 for wild type Trypanosoma brucei. Format: functional.
Conditions: not given
Consider `O=c1[nH]c(=O)n([C@H]2C=C[C@@H](O)C2)cc1I`, for which the “Ratio EC50” value is 0.87.
On to `N#Cc1cccc(C(=O)O[C@@H]2C=C[C@H](n3ccc(=O)[nH]c3=O)C2)c1`, for which the “Ratio EC50” value is reported as 0.83.
Regarding `CCCCCCCCCCCCC#Cc1cn([C@H]2C=C[C@@H](O)C2)c(=O)n([C@H]2C=C[C@@H](O)C2)c1=O`, the “Ratio EC50” value is reported as 0.94.
Turning to `O=C(O[C@@H]1C=C[C@H](n2ccc(=O)[nH]c2=O)C1)c1ccccc1`, the “Ratio EC50” value turned out to be 0.84.
For the compound `Cc1ccc(Nc2cn([C@H]3C=C[C@@H](O)C3)c(=O)[nH]c2=O)cc1`, the “Ratio EC50” value stood at 0.54.
Turning to `O=c1ccn([C@H]2C=C[C@@H](O)C2)c(=O)[nH]1`, the “Ratio EC50” value is given as 0.85.
Take `Cc1cc(C)cc(Cn2c(=O)ccn([C@H]3C=C[C@@H](OC(=O)c4ccccc4)C3)c2=O)c1`: the “Ratio EC50” value was determined as 0.82.
On to `Cc1cc(=O)n(C(=O)c2ccccc2)c(=O)n1[C@H]1C=C[C@@H](OC(=O)c2ccccc2)C1`, for which the “Ratio EC50” value was determined as 0.84.

The test system of a further experiment is Trypanosoma brucei. The experiment in a line: Resistance factor, ratio of EC50 for multi-drug resistant Trypanosoma brucei B48 to EC50 for wild type Trypanosoma brucei. It counts as functional.
Conditions: not given
In the case of `O=c1[nH]c(=O)n([C@H]2C=C[C@@H](O)C2)cc1I`, the “Ratio EC50” value is reported as 1.
For the compound `N#Cc1cccc(C(=O)O[C@@H]2C=C[C@H](n3ccc(=O)[nH]c3=O)C2)c1`, the “Ratio EC50” value was 1.
On the same count and under the same terms, next, `CCCCCCCCCCCCC#Cc1cn([C@H]2C=C[C@@H](O)C2)c(=O)n([C@H]2C=C[C@@H](O)C2)c1=O`: 1.1; `O=C(O[C@@H]1C=C[C@H](n2ccc(=O)[nH]c2=O)C1)c1ccccc1`: 1; `Cc1ccc(Nc2cn([C@H]3C=C[C@@H](O)C3)c(=O)[nH]c2=O)cc1`: 1.
In the case of `O=c1ccn([C@H]2C=C[C@@H](O)C2)c(=O)[nH]1`, the “Ratio EC50” value is recorded as 1.
Still for that read-out and setting: under `Cc1cc(C)cc(Cn2c(=O)ccn([C@H]3C=C[C@@H](OC(=O)c4ccccc4)C3)c2=O)c1` stands 1; under `Cc1cc(=O)n(C(=O)c2ccccc2)c(=O)n1[C@H]1C=C[C@@H](OC(=O)c2ccccc2)C1`, 1.

In the next experiment the test system is Trypanosoma brucei. The experiment in a line: Antiprotozoal activity against bloodstream form of multi-drug resistant Trypanosoma brucei B48 after 16 hrs by Alamar Blue assay. Format: functional. As to conditions: B48, 16 h. For orientation: Resazurin is reduced to fluorescent resorufin, in cell work by metabolically active cells.
Turning to `O=c1[nH]c(=O)n([C@H]2C=C[C@@H](O)C2)cc1I`, the EC50 (usually the concentration that produces a half-maximal response) came out at 36.2 µM.
`N#Cc1cccc(C(=O)O[C@@H]2C=C[C@H](n3ccc(=O)[nH]c3=O)C2)c1`: the response was half-maximal at 36.4 µM (EC50).
Compound `CCCCCCCCCCCCC#Cc1cn([C@H]2C=C[C@@H](O)C2)c(=O)n([C@H]2C=C[C@@H](O)C2)c1=O` registered a concentration for a half-maximal effect (EC50) of 9 µM.
`O=C(O[C@@H]1C=C[C@H](n2ccc(=O)[nH]c2=O)C1)c1ccccc1`: the EC50 was 38.1 µM.
Compound `Cc1ccc(Nc2cn([C@H]3C=C[C@@H](O)C3)c(=O)[nH]c2=O)cc1` gave an EC50 of 31 µM.
`O=c1ccn([C@H]2C=C[C@@H](O)C2)c(=O)[nH]1` had an EC50 of 37.9 µM.
Same read-out and setting: next, `Cc1cc(C)cc(Cn2c(=O)ccn([C@H]3C=C[C@@H](OC(=O)c4ccccc4)C3)c2=O)c1`: 15.7 µM.
The same measure, in the same setting: under `Cc1cc(=O)n(C(=O)c2ccccc2)c(=O)n1[C@H]1C=C[C@@H](OC(=O)c2ccccc2)C1` stands 34 µM.

A further experiment deals with Leishmania mexicana. Nature of the experiment: Resistance factor, ratio of EC50 for 5FU resistant Leishmania mexicana to EC50 for wild type Leishmania mexicana.
Conditions: not given
Format: functional.
In the case of `O=c1[nH]c(=O)n([C@H]2C=C[C@@H](O)C2)cc1I`, the “Ratio EC50” value is recorded as 1.
Regarding `N#Cc1cccc(C(=O)O[C@@H]2C=C[C@H](n3ccc(=O)[nH]c3=O)C2)c1`, the “Ratio EC50” value was 1.02.
As to `CCCCCCCCCCCCC#Cc1cn([C@H]2C=C[C@@H](O)C2)c(=O)n([C@H]2C=C[C@@H](O)C2)c1=O`, the “Ratio EC50” value was 0.97.
As to `O=C(O[C@@H]1C=C[C@H](n2ccc(=O)[nH]c2=O)C1)c1ccccc1`, the “Ratio EC50” value is recorded as 1.01.
Turning to `Cc1ccc(Nc2cn([C@H]3C=C[C@@H](O)C3)c(=O)[nH]c2=O)cc1`, the “Ratio EC50” value amounted to 1.02.
`O=c1ccn([C@H]2C=C[C@@H](O)C2)c(=O)[nH]1`: the “Ratio EC50” value was determined as 1.01.
For `Cc1cc(C)cc(Cn2c(=O)ccn([C@H]3C=C[C@@H](OC(=O)c4ccccc4)C3)c2=O)c1`, the “Ratio EC50” value is on record as 0.94.
Turning to `Cc1cc(=O)n(C(=O)c2ccccc2)c(=O)n1[C@H]1C=C[C@@H](OC(=O)c2ccccc2)C1`, the “Ratio EC50” value was 0.86.

For a further experiment, the system named is Trypanosoma brucei. The experiment in a line: Antiprotozoal activity against PYR6-5 deficient bloodstream form of 5-FU hypersensitive Trypanosoma brucei after 16 hrs by Alamar Blue assay. It counts as functional.
Conditions: not given
On to `O=c1[nH]c(=O)n([C@H]2C=C[C@@H](O)C2)cc1I`, for which the EC50 came out at 33.5 µM.
As for `N#Cc1cccc(C(=O)O[C@@H]2C=C[C@H](n3ccc(=O)[nH]c3=O)C2)c1`, the response was half-maximal at 34.9 µM (EC50).
Compound `CCCCCCCCCCCCC#Cc1cn([C@H]2C=C[C@@H](O)C2)c(=O)n([C@H]2C=C[C@@H](O)C2)c1=O` registered an EC50 of 9.2 µM.
The compound `O=C(O[C@@H]1C=C[C@H](n2ccc(=O)[nH]c2=O)C1)c1ccccc1` had an EC50 of 35.6 µM.
Compound `Cc1ccc(Nc2cn([C@H]3C=C[C@@H](O)C3)c(=O)[nH]c2=O)cc1` showed an EC50 of 24.7 µM.
For `O=c1ccn([C@H]2C=C[C@@H](O)C2)c(=O)[nH]1`, the EC50 is 34.6 µM.
Take `Cc1cc(C)cc(Cn2c(=O)ccn([C@H]3C=C[C@@H](OC(=O)c4ccccc4)C3)c2=O)c1`: the concentration for a half-maximal effect (EC50) turned out to be 15.9 µM.
In turn, `Cc1cc(=O)n(C(=O)c2ccccc2)c(=O)n1[C@H]1C=C[C@@H](OC(=O)c2ccccc2)C1` registered a concentration giving a half-maximal response (EC50) of 32.3 µM.

The subject of a further experiment is Trypanosoma brucei. Nature of the experiment: Antiprotozoal activity against bloodstream form of 5FU resistant Trypanosoma brucei after 16 hrs by Alamar Blue assay. It counts as functional.
Conditions: not given
For the compound `O=c1[nH]c(=O)n([C@H]2C=C[C@@H](O)C2)cc1I`, the EC50 was determined as 30.8 µM.
As for `N#Cc1cccc(C(=O)O[C@@H]2C=C[C@H](n3ccc(=O)[nH]c3=O)C2)c1`, the EC50 is 31.3 µM.
Same read-out and setting: next, `CCCCCCCCCCCCC#Cc1cn([C@H]2C=C[C@@H](O)C2)c(=O)n([C@H]2C=C[C@@H](O)C2)c1=O`: 7.5 µM; `O=C(O[C@@H]1C=C[C@H](n2ccc(=O)[nH]c2=O)C1)c1ccccc1`: 32.3 µM.
Still for that read-out and setting: next, `Cc1ccc(Nc2cn([C@H]3C=C[C@@H](O)C3)c(=O)[nH]c2=O)cc1`: 17.1 µM; `O=c1ccn([C@H]2C=C[C@@H](O)C2)c(=O)[nH]1`: 31.9 µM; `Cc1cc(C)cc(Cn2c(=O)ccn([C@H]3C=C[C@@H](OC(=O)c4ccccc4)C3)c2=O)c1`: 12.4 µM.
`Cc1cc(=O)n(C(=O)c2ccccc2)c(=O)n1[C@H]1C=C[C@@H](OC(=O)c2ccccc2)C1` had an EC50 of 27.7 µM.

The test system of the next experiment is Leishmania mexicana. Nature of the experiment: Antileishmanial activity against 5FU resistant Leishmania mexicana after 16 hrs by Alamar Blue assay. Format: functional.
Conditions: not given
Compound `O=c1[nH]c(=O)n([C@H]2C=C[C@@H](O)C2)cc1I` displayed an EC50 of 95.6 µM.
`N#Cc1cccc(C(=O)O[C@@H]2C=C[C@H](n3ccc(=O)[nH]c3=O)C2)c1` gave an EC50 of 96.3 µM.
`CCCCCCCCCCCCC#Cc1cn([C@H]2C=C[C@@H](O)C2)c(=O)n([C@H]2C=C[C@@H](O)C2)c1=O` displayed an EC50 of 11.4 µM.
In the case of `O=C(O[C@@H]1C=C[C@H](n2ccc(=O)[nH]c2=O)C1)c1ccccc1`, the EC50 amounted to 95.7 µM.
`Cc1ccc(Nc2cn([C@H]3C=C[C@@H](O)C3)c(=O)[nH]c2=O)cc1` had an EC50 of 96.7 µM.
As to `O=c1ccn([C@H]2C=C[C@@H](O)C2)c(=O)[nH]1`, a half-maximal response (EC50) required 97.9 µM.
Same read-out and setting: under `Cc1cc(C)cc(Cn2c(=O)ccn([C@H]3C=C[C@@H](OC(=O)c4ccccc4)C3)c2=O)c1` stands 38.6 µM; under `Cc1cc(=O)n(C(=O)c2ccccc2)c(=O)n1[C@H]1C=C[C@@H](OC(=O)c2ccccc2)C1`, 22.6 µM.

The test system of a further experiment is Trypanosoma brucei. The experiment in a line: Resistance factor, ratio of EC50 for PYR6-5 deficient bloodstream form of 5-FU hypersensitive Trypanosoma brucei to EC50 for wild type Trypanosoma brucei.
Conditions: not given
It counts as functional.
Regarding `O=c1[nH]c(=O)n([C@H]2C=C[C@@H](O)C2)cc1I`, the “Ratio EC50” value came to 0.95.
On to `N#Cc1cccc(C(=O)O[C@@H]2C=C[C@H](n3ccc(=O)[nH]c3=O)C2)c1`, for which the “Ratio EC50” value is reported as 0.92.
For the compound `CCCCCCCCCCCCC#Cc1cn([C@H]2C=C[C@@H](O)C2)c(=O)n([C@H]2C=C[C@@H](O)C2)c1=O`, the “Ratio EC50” value was 1.15.
`O=C(O[C@@H]1C=C[C@H](n2ccc(=O)[nH]c2=O)C1)c1ccccc1`: the “Ratio EC50” value stood at 0.93.
For the compound `Cc1ccc(Nc2cn([C@H]3C=C[C@@H](O)C3)c(=O)[nH]c2=O)cc1`, the “Ratio EC50” value was determined as 0.78.
For the compound `O=c1ccn([C@H]2C=C[C@@H](O)C2)c(=O)[nH]1`, the “Ratio EC50” value worked out at 0.92.
`Cc1cc(C)cc(Cn2c(=O)ccn([C@H]3C=C[C@@H](OC(=O)c4ccccc4)C3)c2=O)c1`: the “Ratio EC50” value turned out to be 1.05.
`Cc1cc(=O)n(C(=O)c2ccccc2)c(=O)n1[C@H]1C=C[C@@H](OC(=O)c2ccccc2)C1`: the “Ratio EC50” value amounted to 0.98.

The next experiment concerns Leishmania mexicana. The experiment in a line: Antileishmanial activity against wild type Leishmania mexicana after 16 hrs by Alamar Blue assay.
Conditions: not given
Format: functional.
Take `O=c1[nH]c(=O)n([C@H]2C=C[C@@H](O)C2)cc1I`: the EC50 is 95.2 µM.
For `N#Cc1cccc(C(=O)O[C@@H]2C=C[C@H](n3ccc(=O)[nH]c3=O)C2)c1`, the EC50 came to 94.7 µM.
`CCCCCCCCCCCCC#Cc1cn([C@H]2C=C[C@@H](O)C2)c(=O)n([C@H]2C=C[C@@H](O)C2)c1=O` registered an EC50 of 11.8 µM.
On the same count and under the same terms, under `O=C(O[C@@H]1C=C[C@H](n2ccc(=O)[nH]c2=O)C1)c1ccccc1` stands 94.8 µM; under `Cc1ccc(Nc2cn([C@H]3C=C[C@@H](O)C3)c(=O)[nH]c2=O)cc1`, 94.6 µM.
As for `O=c1ccn([C@H]2C=C[C@@H](O)C2)c(=O)[nH]1`, the concentration for a half-maximal effect (EC50) was found to be 97 µM.
The compound `Cc1cc(C)cc(Cn2c(=O)ccn([C@H]3C=C[C@@H](OC(=O)c4ccccc4)C3)c2=O)c1` came in with an EC50 of 41.3 µM.
With `Cc1cc(=O)n(C(=O)c2ccccc2)c(=O)n1[C@H]1C=C[C@@H](OC(=O)c2ccccc2)C1`, the EC50 was 26.1 µM.

Another experiment concerns Trypanosoma brucei. Nature of the experiment: Antiprotozoal activity against bloodstream form of wild type Trypanosoma brucei after 16 hrs by Alamar Blue assay. Format: functional.
Conditions: not given
`O=c1[nH]c(=O)n([C@H]2C=C[C@@H](O)C2)cc1I` displayed an EC50 of 35.3 µM.
With `N#Cc1cccc(C(=O)O[C@@H]2C=C[C@H](n3ccc(=O)[nH]c3=O)C2)c1`, it took 37.8 µM to reach a half-maximal effect (EC50).
The compound `CCCCCCCCCCCCC#Cc1cn([C@H]2C=C[C@@H](O)C2)c(=O)n([C@H]2C=C[C@@H](O)C2)c1=O` yielded an EC50 of 8 µM.
`O=C(O[C@@H]1C=C[C@H](n2ccc(=O)[nH]c2=O)C1)c1ccccc1` showed an EC50 of 38.3 µM.
Still for that read-out and setting: under `Cc1ccc(Nc2cn([C@H]3C=C[C@@H](O)C3)c(=O)[nH]c2=O)cc1` stands 31.7 µM; under `O=c1ccn([C@H]2C=C[C@@H](O)C2)c(=O)[nH]1`, 37.6 µM.
The compound `Cc1cc(C)cc(Cn2c(=O)ccn([C@H]3C=C[C@@H](OC(=O)c4ccccc4)C3)c2=O)c1` gave an EC50 of 15.2 µM.
`Cc1cc(=O)n(C(=O)c2ccccc2)c(=O)n1[C@H]1C=C[C@@H](OC(=O)c2ccccc2)C1`: the EC50 was 33.1 µM.

The values are drawn from ChEMBL document CHEMBL4020806, “Evaluation of the antiprotozoan properties of 5'-norcarbocyclic pyrimidine nucleosides” (Bioorg Med Chem Lett, 2017).
